Source: the NIST ThermoML archive (doi:10.1016/j.jct.2018.04.019)

Conditions: Liquid; for speed of sound: Frequency=5 MHz, Pulse-echo method; for mass density: Vibrating tube method

CCCCCCCCC [nonane]
Conditions | mass density [kg/m3] | speed of sound [m/s]
283.13 K, 1090 kPa | – | 1273.9
283.13 K, 30100 kPa | – | 1432.4
283.13 K, 59970 kPa | – | 1563.7
283.13 K, 90370 kPa | – | 1676.8
283.13 K, 120250 kPa | – | 1774.7
283.13 K, 149990 kPa | – | 1862.2
283.13 K, 180130 kPa | – | 1943.2
283.13 K, 210070 kPa | – | 2017.3
283.13 K, 240000 kPa | – | 2086.3
283.13 K, 270320 kPa | – | 2151.8
283.13 K, 300010 kPa | – | 2212.5
283.13 K, 330300 kPa | – | 2271
283.13 K, 360220 kPa | – | 2326
283.13 K, 389880 kPa | – | 2378.1
283.15 K, 1010 kPa | 726.22 | –
283.15 K, 5020 kPa | 729.22 | –
283.15 K, 5040 kPa | 729.17 | –
283.15 K, 10020 kPa | 732.75 | –
283.15 K, 15020 kPa | 736.14 | –
283.15 K, 20040 kPa | 739.41 | –
283.15 K, 25020 kPa | 742.54 | –
283.15 K, 30040 kPa | 745.52 | –
283.15 K, 35050 kPa | 748.45 | –
283.15 K, 40010 kPa | 751.23 | –
283.15 K, 45050 kPa | 753.99 | –
283.15 K, 50010 kPa | 756.62 | –
283.15 K, 55020 kPa | 759.19 | –
283.15 K, 60030 kPa | 761.66 | –
283.15 K, 65010 kPa | 764.08 | –
298.15 K, 1020 kPa | 714.83 | –
298.15 K, 1040 kPa | – | 1212.6
298.15 K, 5010 kPa | 718.08 | –
298.15 K, 5040 kPa | 718.12 | –
298.15 K, 10030 kPa | 721.94 | –
298.15 K, 15060 kPa | 725.7 | –
298.15 K, 20040 kPa | 729.17 | –
298.15 K, 25040 kPa | 732.54 | –
298.15 K, 30010 kPa | 735.76 | –
298.15 K, 30040 kPa | – | 1380.2
298.15 K, 35050 kPa | 738.87 | –
298.15 K, 40010 kPa | 741.88 | –
298.15 K, 45060 kPa | 744.79 | –
298.15 K, 50010 kPa | 747.56 | –
298.15 K, 55040 kPa | 750.31 | –
298.15 K, 60020 kPa | 752.92 | –
298.15 K, 60130 kPa | – | 1518
298.15 K, 65010 kPa | 755.48 | –
298.15 K, 90110 kPa | – | 1633.4
298.15 K, 120200 kPa | – | 1734.7
298.15 K, 150120 kPa | – | 1824.9
298.15 K, 180370 kPa | – | 1907.9
298.15 K, 210410 kPa | – | 1983.7
298.15 K, 240020 kPa | – | 2053.1
298.15 K, 270230 kPa | – | 2119.6
298.15 K, 300100 kPa | – | 2181.4
298.15 K, 330260 kPa | – | 2240.5
298.15 K, 360030 kPa | – | 2296
298.15 K, 390030 kPa | – | 2349.2
323.14 K, 1020 kPa | – | 1112.3
323.14 K, 30050 kPa | – | 1297.8
323.14 K, 60210 kPa | – | 1445.2
323.14 K, 90150 kPa | – | 1566.7
323.14 K, 120240 kPa | – | 1672.3
323.14 K, 150130 kPa | – | 1765.5
323.14 K, 179980 kPa | – | 1850.1
323.14 K, 210410 kPa | – | 1929.2
323.14 K, 239980 kPa | – | 2000.4
323.14 K, 270330 kPa | – | 2068.7
323.14 K, 300070 kPa | – | 2131.6
323.14 K, 330050 kPa | – | 2191.3
323.14 K, 360040 kPa | – | 2247.9
323.14 K, 390060 kPa | – | 2301.7
323.15 K, 1030 kPa | 695.27 | –
323.15 K, 5030 kPa | 699.04 | –
323.15 K, 5060 kPa | 699.09 | –
323.15 K, 10050 kPa | 703.57 | –
323.15 K, 15020 kPa | 707.81 | –
323.15 K, 20050 kPa | 711.84 | –
323.15 K, 25020 kPa | 715.63 | –
323.15 K, 30020 kPa | 719.22 | –
323.15 K, 35080 kPa | 722.75 | –
323.15 K, 40050 kPa | 726.09 | –
323.15 K, 45060 kPa | 729.27 | –
323.15 K, 50030 kPa | 732.36 | –
323.15 K, 55050 kPa | 735.35 | –
323.15 K, 60010 kPa | 738.19 | –
323.15 K, 65010 kPa | 741.02 | –
348.14 K, 1040 kPa | – | 1017.2
348.14 K, 1060 kPa | – | 1018.1
348.14 K, 30150 kPa | – | 1220.8
348.14 K, 59870 kPa | – | 1375.2
348.14 K, 90060 kPa | – | 1503.8
348.14 K, 120210 kPa | – | 1613.8
348.14 K, 150180 kPa | – | 1710.4
348.14 K, 180310 kPa | – | 1798.1
348.14 K, 210230 kPa | – | 1877.8
348.14 K, 240360 kPa | – | 1951.8
348.14 K, 269990 kPa | – | 2019.2
348.14 K, 300420 kPa | – | 2084.3
348.14 K, 330170 kPa | – | 2144.5
348.14 K, 360170 kPa | – | 2202.2
348.14 K, 390070 kPa | – | 2256.5
348.15 K, 1010 kPa | 675.18 | –
348.15 K, 5030 kPa | 679.76 | –
348.15 K, 5040 kPa | 679.76 | –
348.15 K, 10030 kPa | 685 | –
348.15 K, 15020 kPa | 689.84 | –
348.15 K, 20040 kPa | 694.44 | –
348.15 K, 25050 kPa | 698.79 | –
348.15 K, 30030 kPa | 702.84 | –
348.15 K, 35050 kPa | 706.74 | –
348.15 K, 40020 kPa | 710.4 | –
348.15 K, 45070 kPa | 714.01 | –
348.15 K, 50040 kPa | 717.37 | –
348.15 K, 55050 kPa | 720.67 | –
348.15 K, 60000 kPa | 723.79 | –
348.15 K, 65040 kPa | 726.84 | –
373.14 K, 1020 kPa | – | 924.94
373.14 K, 30120 kPa | – | 1147.9
373.14 K, 60040 kPa | – | 1312.4
373.14 K, 90420 kPa | – | 1447
373.14 K, 120190 kPa | – | 1559.5
373.14 K, 150200 kPa | – | 1659
373.14 K, 180540 kPa | – | 1749
373.14 K, 210010 kPa | – | 1829.3
373.14 K, 240370 kPa | – | 1905.5
373.14 K, 270130 kPa | – | 1974.7
373.14 K, 300130 kPa | – | 2040.3
373.14 K, 330240 kPa | – | 2102.3
